In PubChem BioAssay (NCI):
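Exposure lasted 48 hours, with cells grown in 96-well plates and compounds tested at five concentrations. TGI marks complete inhibition of growth.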

Tests used:
Test in all cases: NCI anticancer screen, dose series, 48 h
786-0 renal = test system: 786-0 renal
A549 NSCLC = test system: A549 NSCLC
ACHN renal = test system: ACHN renal
CAKI-1 renal = test system: CAKI-1 renal
CCRF-CEM leukemia = test system: CCRF-CEM leukemia
COLO 205 colon = test system: COLO 205 colon
DLD-1 colon = test system: DLD-1 colon
DMS 114 small cell lung = test system: DMS 114 small cell lung
DMS 273 small cell lung = test system: DMS 273 small cell lung
HCC-2998 colon = test system: HCC-2998 colon
HCT-116 colon = test system: HCT-116 colon
HCT-15 colon = test system: HCT-15 colon
HL-60(TB) leukemia = test system: HL-60(TB) leukemia
HOP-62 NSCLC = test system: HOP-62 NSCLC
HOP-92 NSCLC = test system: HOP-92 NSCLC
HT29 colon = test system: HT29 colon
IGROV1 ovarian = test system: IGROV1 ovarian
K-562 leukemia = test system: K-562 leukemia
KM12 colon = test system: KM12 colon
KM20L2 colon = test system: KM20L2 colon
LOX IMVI melanoma = test system: LOX IMVI melanoma
LXFL 529 NSCLC = test system: LXFL 529 NSCLC
M14 melanoma = test system: M14 melanoma
M19-MEL melanoma = test system: M19-MEL melanoma
MALME-3M melanoma = test system: MALME-3M melanoma
MOLT-4 leukemia = test system: MOLT-4 leukemia
NCI-H23 lung = test system: NCI-H23 lung
NCI-H460 lung = test system: NCI-H460 lung
NCI-H522 lung = test system: NCI-H522 lung
OVCAR-3 ovarian = test system: OVCAR-3 ovarian
OVCAR-4 ovarian = test system: OVCAR-4 ovarian
OVCAR-5 ovarian = test system: OVCAR-5 ovarian
OVCAR-8 ovarian = test system: OVCAR-8 ovarian
RPMI-8226 leukemia = test system: RPMI-8226 leukemia
RXF-631 renal = test system: RXF-631 renal
SF-268 CNS = test system: SF-268 CNS
SF-295 CNS = test system: SF-295 CNS
SF-539 CNS = test system: SF-539 CNS
SK-MEL-28 melanoma = test system: SK-MEL-28 melanoma
SK-MEL-5 melanoma = test system: SK-MEL-5 melanoma
SK-OV-3 ovarian = test system: SK-OV-3 ovarian
SN12C renal = test system: SN12C renal
SNB-75 CNS = test system: SNB-75 CNS
SNB-78 CNS = test system: SNB-78 CNS
SR leukemia = test system: SR leukemia
SW-620 colon = test system: SW-620 colon
TK-10 renal = test system: TK-10 renal
U251 CNS = test system: U251 CNS
UACC-257 melanoma = test system: UACC-257 melanoma
UACC-62 melanoma = test system: UACC-62 melanoma
UO-31 renal = test system: UO-31 renal
XF 498 CNS = test system: XF 498 CNS
A498 renal = test system: A498 renal
EKVX NSCLC = test system: EKVX NSCLC
HOP-18 NSCLC = test system: HOP-18 NSCLC
RXF 393 renal = test system: RXF 393 renal
SK-MEL-2 melanoma = test system: SK-MEL-2 melanoma
SNB-19 CNS = test system: SNB-19 CNS

## OCCCOC(c1ccccc1)(c1ccccc1)c1ccccc1
786-0 renal
  TGI: > 100 µM
A549 NSCLC
  TGI: > 100 µM
ACHN renal
  TGI: > 100 µM
CAKI-1 renal
  TGI: > 100 µM
CCRF-CEM leukemia
  TGI: > 100 µM
COLO 205 colon
  TGI: > 100 µM
DLD-1 colon
  TGI: > 100 µM
DMS 114 small cell lung
  TGI: > 100 µM
DMS 273 small cell lung
  TGI: > 100 µM
HCC-2998 colon
  TGI: > 100 µM
HCT-116 colon
  TGI: > 100 µM
HCT-15 colon
  TGI: > 100 µM
HL-60(TB) leukemia
  TGI: > 100 µM
HOP-62 NSCLC
  TGI: > 100 µM
HOP-92 NSCLC
  TGI: > 100 µM
HT29 colon
  TGI: 92.8 µM
IGROV1 ovarian
  TGI: > 100 µM
K-562 leukemia
  TGI: > 100 µM
KM12 colon
  TGI: > 100 µM
KM20L2 colon
  TGI: > 100 µM
LOX IMVI melanoma
  TGI: > 100 µM
LXFL 529 NSCLC
  TGI: > 100 µM
M14 melanoma
  TGI: > 100 µM
M19-MEL melanoma
  TGI: > 100 µM
MALME-3M melanoma
  TGI: > 100 µM
MOLT-4 leukemia
  TGI: > 100 µM
NCI-H23 lung
  TGI: > 100 µM
NCI-H460 lung
  TGI: > 100 µM
NCI-H522 lung
  TGI: > 100 µM
OVCAR-3 ovarian
  TGI: > 100 µM
OVCAR-4 ovarian
  TGI: > 100 µM
OVCAR-5 ovarian
  TGI: > 100 µM
OVCAR-8 ovarian
  TGI: > 100 µM
RPMI-8226 leukemia
  TGI: > 100 µM
RXF-631 renal
  TGI: > 100 µM
SF-268 CNS
  TGI: > 100 µM
SF-295 CNS
  TGI: > 100 µM
SF-539 CNS
  TGI: > 100 µM
SK-MEL-28 melanoma
  TGI: > 100 µM
SK-MEL-5 melanoma
  TGI: > 100 µM
SK-OV-3 ovarian
  TGI: > 100 µM
SN12C renal
  TGI: > 100 µM
SNB-75 CNS
  TGI: 62 µM
SNB-78 CNS
  TGI: > 100 µM
SR leukemia
  TGI: > 100 µM
SW-620 colon
  TGI: > 100 µM
TK-10 renal
  TGI: > 100 µM
U251 CNS
  TGI: > 100 µM
UACC-257 melanoma
  TGI: > 100 µM
UACC-62 melanoma
  TGI: > 100 µM
UO-31 renal
  TGI: > 100 µM
XF 498 CNS
  TGI: > 100 µM

## Oc1cc(O)c(Oc2cccc(O)c2O)c(O)c1
786-0 renal
  TGI: > 100 µM
A498 renal
  TGI: > 100 µM
A549 NSCLC
  TGI: > 100 µM
ACHN renal
  TGI: > 100 µM
CAKI-1 renal
  TGI: > 100 µM
CCRF-CEM leukemia
  TGI: > 100 µM
COLO 205 colon
  TGI: > 100 µM
DMS 114 small cell lung
  TGI: > 100 µM
DMS 273 small cell lung
  TGI: > 100 µM
EKVX NSCLC
  TGI: > 100 µM
HCC-2998 colon
  TGI: > 100 µM
HCT-15 colon
  TGI: > 100 µM
HL-60(TB) leukemia
  TGI: > 100 µM
HOP-18 NSCLC
  TGI: > 100 µM
HOP-62 NSCLC
  TGI: > 100 µM
HOP-92 NSCLC
  TGI: > 100 µM
HT29 colon
  TGI: > 100 µM
IGROV1 ovarian
  TGI: > 100 µM
K-562 leukemia
  TGI: > 100 µM
KM12 colon
  TGI: > 100 µM
LXFL 529 NSCLC
  TGI: > 100 µM
M14 melanoma
  TGI: > 100 µM
M19-MEL melanoma
  TGI: 45.9 µM
MALME-3M melanoma
  TGI: > 100 µM
MOLT-4 leukemia
  TGI: > 100 µM
NCI-H23 lung
  TGI: > 100 µM
NCI-H460 lung
  TGI: > 100 µM
NCI-H522 lung
  TGI: > 100 µM
OVCAR-3 ovarian
  TGI: > 100 µM
OVCAR-4 ovarian
  TGI: 31.6 µM
OVCAR-5 ovarian
  TGI: > 100 µM
OVCAR-8 ovarian
  TGI: > 100 µM
RPMI-8226 leukemia
  TGI: > 100 µM
RXF 393 renal
  TGI: > 100 µM
RXF-631 renal
  TGI: > 100 µM
SF-268 CNS
  TGI: > 100 µM
SF-295 CNS
  TGI: > 100 µM
SF-539 CNS
  TGI: > 100 µM
SK-MEL-2 melanoma
  TGI: > 100 µM
SK-MEL-28 melanoma
  TGI: > 100 µM
SK-MEL-5 melanoma
  TGI: 38.7 µM
SK-OV-3 ovarian
  TGI: > 100 µM
SN12C renal
  TGI: > 100 µM
SNB-19 CNS
  TGI: > 100 µM
SNB-75 CNS
  TGI: > 100 µM
SNB-78 CNS
  TGI: > 100 µM
SW-620 colon
  TGI: > 100 µM
TK-10 renal
  TGI: > 100 µM
U251 CNS
  TGI: > 100 µM
UACC-257 melanoma
  TGI: > 100 µM
UACC-62 melanoma
  TGI: > 100 µM
UO-31 renal
  TGI: > 100 µM
XF 498 CNS
  TGI: > 100 µM
